These results are taken from ChEMBL document CHEMBL5137093, “Improving Drug Delivery While Tailoring Prodrug Activation to Modulate Cmax and Cmin by Optimization of (Carbonyl)oxyalkyl Linker-Based Prodrugs of Atazanavir” (J Med Chem, 2022).

The nature of data set [1]: Aqueous stability of the compound in HCL at pH 1 assessed as compound half life measured after 24 hrs by UPLC analysis. In kind it is physicochemical. To be noted: for half-life: aqueous HCl, pH 1; for t1/2: buffer, pH 1, 24 h, 24 h.
A short description of data set [2]: Aqueous stability of the compound in acetate buffer at pH 4 assessed as compound half life measured after 24 hrs by UPLC analysis. In kind it is physicochemical. To be noted: for half-life: acetate buffer, pH 4; for t1/2: buffer, pH 4, 24 h, 24 h.
A short description of data set [3]: Aqueous stability of the compound in phosphate buffer at pH 6.5 assessed as compound half life measured after 24 hrs by UPLC analysis. The class given is physicochemical. To be noted: for half-life: phosphate buffer, pH 6.5; for t1/2: buffer, pH 6.5, 24 h, 24 h.
Data set [4] can be described thus: Aqueous solubility of compound at pH 1 by UPLC analysis. The class given is physicochemical.
Data set [5] is described as follows: Aqueous solubility of compound at pH 4 by UPLC analysis. The class given is physicochemical.
A short description of data set [6]: Cmax in Sprague-Dawley rat at 3 ml/kg,po measured upto 24 hrs by UPLC-MS/MS analysis. In kind it is ADME. Set-up: dose 3 ml/kg, time < 24 hrs, route po. Particulars: in vivo.
Data set [7] can be described thus: Tmax in Sprague-Dawley rat at 3 ml/kg,po measured upto 24 hrs by UPLC-MS/MS analysis. In kind it is ADME. To be noted: in vivo.
Data set [8] is described as follows: AUClast in Sprague-Dawley rat at 3 ml/kg,po measured upto 24 hrs by UPLC-MS/MS analysis. The class given is ADME. To be noted: in vivo; for AUClast: 24 h; for AUC(0-t) at 24 h: Sprague-Dawley, 3 ml/kg. Set-up: time < 24 hrs, dose 3 ml/kg, route po.
Data set [9] can be described thus: Relative Cmax ratio of Atazanavir in Sprague-Dawley rat at 3 ml/kg,po measured upto 24 hrs by UPLC-MS/MS analysis. The class given is ADME. To be noted: in vivo.
Data set [10] is described as follows: Relative AUC ratio of Atazanavir in Sprague-Dawley rat at 3 ml/kg,po measured upto 24 hrs by UPLC-MS/MS analysis. The class given is ADME. To be noted: in vivo.
Data set [11] can be described thus: Fold ratio of total AUC of Atazanavir in Sprague-Dawley rat at 3 ml/kg,po measured upto 24 hrs by UPLC-MS/MS analysis. To be noted: in vivo. The class given is ADME.
A short description of data set [12]: Ratio of AUC of Atazanavir in Sprague-Dawley rat at 3 ml/kg,po measured upto 24 hrs by UPLC-MS/MS analysis. To be noted: in vivo. In kind it is ADME.
A short description of data set [13]: Ratio of Cmax/Cmin of Atazanavir in Sprague-Dawley rat at 3 ml/kg,po measured after 24 hrs by UPLC-MS/MS analysis. The class given is ADME. To be noted: in vivo.
[14] abbreviates: aqueous medium, read-out: solubility.

Values after ≈ are worked out from the molar mass of the structure shown. Some results are limits rather than exact numbers.

By half-life is commonly meant how long it takes for the measured level to halve. As usually defined, the solubility is the concentration that dissolves in the medium under given conditions. The term Cmax denotes the peak of the concentration-time curve. The Tmax is the time from dosing to the highest level. What is called AUC(0-t) is exposure summed from dosing to a finite time, without extrapolation to infinity. A lower AUC(0-t) goes with low exposure.

For `COC(=O)N[C@H](C(=O)N[C@@H](Cc1ccccc1)[C@H](CN(Cc1ccc(-c2ccccn2)cc1)NC(=O)[C@@H](NC(=O)OC)C(C)(C)C)OC(=O)OC(OC(=O)[C@H](C)N)C(C)C)C(C)(C)C` (stereo in doubt; 3p), the results for the half-life in data set [1], in data set [2] and in [3] were 158 h, 41.8 h and 3.6 h, respectively. The solubility was more than 1600 µg/mL in data set [4] (setting [14]) and more than 2400 µg/mL in [5] (setting [14]). This compound also displayed a Cmax in data set [6] (24 h) of 34 nM. In [7] (Sprague-Dawley, read-out: Tmax), the Tmax stood at 0.4 h. In data set [8], this compound came in with an AUClast of 0.019 µM·h. Moreover, the Ratio is recorded as 0.9 in [9], 0.8 in data set [10], 0.9 in data set [11] and 0.06 in data set [12].
Take `COC(=O)N[C@H](C(=O)N[C@@H](Cc1ccccc1)[C@H](CN(Cc1ccc(-c2ccccn2)cc1)NC(=O)[C@@H](NC(=O)OC)C(C)(C)C)OC(=O)OC(OC(=O)[C@@H](NC(=O)[C@H](N)C(C)C)C(C)C)C(C)C)C(C)(C)C` (stereo in doubt; 6g): the half-life in [1] is more than 500 h; in data set [2], 232 h; in data set [3], 6.1 h. The figures for the solubility in data set [4] (setting [14]) and in data set [5] (setting [14]) were more than 2200 µg/mL and more than 1200 µg/mL, respectively.
For the compound `COC(=O)N[C@H](C(=O)N[C@@H](Cc1ccccc1)[C@H](CN(Cc1ccc(-c2ccccn2)cc1)NC(=O)[C@@H](NC(=O)OC)C(C)(C)C)OC(=O)OC(OC(=O)[C@@H](N)C(C)C)C(C)(C)C)C(C)(C)C` (stereo in doubt; 4m), the t1/2 in data set [3] was found to be 23.7 h. Moreover, the solubility is more than 1200 µg/mL in data set [4] (buffer) and more than 1000 µg/mL in [5] (buffer). This compound had a Cmax in [6] (24 h) of 27 nM. In data set [7] (po, 24 h), the Tmax was 0.3 h. In addition, the AUClast in [8] worked out at 0.006 µM·h. The Ratio is on record as 1.9 in data set [9]; 2 in data set [10]; 2 in [11]; 721.4 in [13]; 0.01 in [12].
As for `COC(=O)N[C@H](C(=O)N[C@@H](Cc1ccccc1)[C@H](CN(Cc1ccc(-c2ccccn2)cc1)NC(=O)[C@@H](NC(=O)OC)C(C)(C)C)OC(=O)OC(OC(=O)[C@@H](N)CC(C)C)C(C)C)C(C)(C)C` (stereo in doubt; 3u), the values for the t1/2 in [1], in [2] and in data set [3] were 136.8 h, 59 h and 5.9 h, respectively. The solubility is more than 1480 µg/mL in data set [4] (buffer) and more than 1600 µg/mL in [5] (buffer). Further, in data set [6] (Sprague-Dawley, 3 ml/kg), the concentration peaked (Cmax) at 182 nM. Also, the Tmax in data set [7] (Sprague-Dawley, read-out: Tmax) was found to be 0.3 h. This compound came in with an AUC(0-t) at 24 h in data set [8] of 0.105 µM·h. The Ratio in [9] was determined as 2.9; in [10] it was 2.1; in [11], 2.4; in [12], 0.13.
Take `CCC(C)C(OC(=O)O[C@@H](CN(Cc1ccc(-c2ccccn2)cc1)NC(=O)[C@@H](NC(=O)OC)C(C)(C)C)[C@H](Cc1ccccc1)NC(=O)[C@@H](NC(=O)OC)C(C)(C)C)OC(=O)[C@@H](N)C(C)C` (mixture of isomers): the half-life in [1] and in data set [2] was more than 500 h each time. Further, in data set [3], the t1/2 was determined as 27.3 h. Further, the figures for the solubility in data set [4] (setting [14]) and in data set [5] (setting [14]) were more than 2100 µg/mL and more than 1500 µg/mL, respectively. The same compound yielded a Cmax in [6] (24 h) of 805 nM. Also, in data set [7] (Sprague-Dawley, read-out: Tmax), the Tmax stood at 0.3 h. For the same compound, in data set [8], the AUClast was 0.724 µM·h. For the same compound, the Ratio is listed as 3.8 in [9], 2.8 in data set [10], 4.6 in [11] and 0.68 in data set [12].
`COC(=O)N[C@H](C(=O)N[C@@H](Cc1ccccc1)[C@H](CN(Cc1ccc(-c2ccccn2)cc1)NC(=O)[C@@H](NC(=O)OC)C(C)(C)C)OC(=O)OC(OC(=O)[C@@H](N)C(C)C)C1CCCCC1)C(C)(C)C` (stereo in doubt; 4o): the t1/2 is more than 500 h in data set [2] and 12.7 h in data set [3]. In addition, the solubility in [4] (buffer) is more than 2000 µg/mL; in data set [5] (buffer), more than 1100 µg/mL. Moreover, the peak level in data set [6] (24 h) (Cmax) was 395 nM. The Tmax in data set [7] (po, 24 h) amounted to 0.3 h. Besides, the AUClast in data set [8] is 0.406 µM·h. Also, the Ratio in data set [9] is 1.4; in data set [10], 1.1; in data set [11] it was 2.1; in data set [12], 0.98.
In the case of `COC(=O)N[C@H](C(=O)N[C@@H](Cc1ccccc1)[C@H](CN(Cc1ccc(-c2ccccn2)cc1)NC(=O)[C@@H](NC(=O)OC)C(C)(C)C)OC(=O)OC(OC(=O)C[C@H](N)Cc1cc(F)c(F)cc1F)C(C)C)C(C)(C)C` (stereo in doubt; 3ab), the results for the half-life in [1], in data set [2] and in data set [3] were more than 500 h, 376 h and 8.9 h, respectively. In addition, the solubility is more than 960 µg/mL in data set [4] (buffer) and more than 910 µg/mL in [5] (setting [14]).
For the compound `COC(=O)N[C@H](C(=O)N[C@@H](Cc1ccccc1)[C@H](CN(Cc1ccc(-c2ccccn2)cc1)NC(=O)[C@@H](NC(=O)OC)C(C)(C)C)OC(=O)OC(OC(=O)[C@@H](N)C(C)C)C(C)C)C(C)(C)C` (stereo in doubt; 3r), the half-life in [1] and in [2] was more than 500 h throughout. Moreover, in [3], the t1/2 stood at 10.6 h. The solubility in data set [4] (setting [14]) is more than 2600 µg/mL; in [5] (setting [14]), more than 2500 µg/mL. Besides, the Ratio in data set [9] is recorded as 3.4; in data set [10], 3.6; in data set [11], 3.6; in data set [13] it was 761.7; in [12], 0.
With `CN[C@H](C(=O)OC(OC(=O)O[C@@H](CN(Cc1ccc(-c2ccccn2)cc1)NC(=O)[C@@H](NC(=O)OC)C(C)(C)C)[C@H](Cc1ccccc1)NC(=O)[C@@H](NC(=O)OC)C(C)(C)C)C(C)C)C(C)C` (stereo in doubt; 5f), the t1/2 in data set [2] is more than 500 h; in data set [3], 2.87 h. Besides, the solubility is more than 2000 µg/mL in data set [4] (buffer) and more than 1900 µg/mL in data set [5] (buffer). Moreover, in data set [6] (24 h), the Cmax came out at 382 nM. For the same compound, the Tmax in data set [7] (po, 24 h) came out at 0.7 h. Also, the AUClast in data set [8] worked out at 0.996 µM·h. Besides, the Ratio in [9] amounted to 2.1; in data set [10], 4.4; in data set [11], 7; in data set [13], 194.1; in data set [12], 0.59.
As for `COC(=O)N[C@H](C(=O)N[C@@H](Cc1ccccc1)[C@H](CN(Cc1ccc(-c2ccccn2)cc1)NC(=O)[C@@H](NC(=O)OC)C(C)(C)C)OC(=O)OC(OC(=O)CCN)C(C)C)C(C)(C)C` (stereo in doubt; 3aa), the t1/2 in data set [1] came to 376.3 h; in data set [2], 376.3 h; in data set [3], 11.4 h. For the same compound, the solubility in data set [4] (buffer) was more than 3000 µg/mL; in data set [5] (buffer), more than 2200 µg/mL.
As for `COC(=O)N[C@H](C(=O)N[C@@H](Cc1ccccc1)[C@H](CN(Cc1ccc(-c2ccccn2)cc1)NC(=O)[C@@H](NC(=O)OC)C(C)(C)C)OC(=O)OC(OC(=O)C[C@H](N)Cc1cc(F)c(F)cc1F)C(C)C)C(C)(C)C` (stereo in doubt; 3ac), the figures for the t1/2 in [2] and in [3] were 334.3 h and 7.4 h, respectively. Besides, the solubility is more than 2400 µg/mL in [4] (buffer) and 960 µg/mL (≈ 926 µM) in data set [5] (buffer). Further, in [6] (Sprague-Dawley, 3 ml/kg), the concentration peaked (Cmax) at 989 nM. In addition, the Tmax in data set [7] (Sprague-Dawley, read-out: Tmax) was found to be 3 h. The compound also came in with an AUC(0-t) at 24 h in [8] of 8.01 µM·h. Also, the Ratio is listed as 1.2 in [9]; 6.1 in data set [10]; 27 in data set [11]; 36.4 in data set [13]; 3.4 in data set [12].
Take `CCC(C)C(OC(=O)O[C@@H](CN(Cc1ccc(-c2ccccn2)cc1)NC(=O)[C@@H](NC(=O)OC)C(C)(C)C)[C@H](Cc1ccccc1)NC(=O)[C@@H](NC(=O)OC)C(C)(C)C)OC(=O)[C@@H](N)C(C)C` (stereo in doubt; 4k): the results for the t1/2 in data set [2] and in [3] were 334.4 h and 13.4 h, respectively. In addition, the solubility in data set [5] (buffer) was more than 2600 µg/mL. In addition, in data set [6] (24 h), the Cmax was found to be 1840 nM. In data set [8], this compound yielded an AUClast of 1.658 µM·h. Also, the Ratio in data set [9] is 3.7; in [10], 3.2; in data set [11], 7.5; in [13], 1631.7; in data set [12], 1.34.
In the case of `COC(=O)N[C@H](C(=O)N[C@@H](Cc1ccccc1)[C@H](CN(Cc1ccc(-c2ccccn2)cc1)NC(=O)[C@@H](NC(=O)OC)C(C)(C)C)OC(=O)OC(OC(=O)[C@@H](N)CC(C)C)C(C)C)C(C)(C)C` (stereo in doubt; 3t), the t1/2 in data set [1] was more than 500 h; in [2], 136.8 h; in data set [3], 12 h. Further, the values for the solubility in [4] (setting [14]) and in data set [5] (setting [14]) were more than 1400 µg/mL and more than 1100 µg/mL, respectively. Also, the Ratio in data set [9] stood at 2.1; in data set [10], 1.3; in data set [11], 1.3; in data set [13], 304.4; in data set [12], 0.
